The target in assay [1] is T1, human D2R/β-arrestin (Homo sapiens (Human), UniProt P14416). The assay can be described thus: cell-based. To be noted: β-arrestin Antagonist, CHO-K1 cells expressing human D2R/β-arrestin; antagonist mode, quinpirole 130 nM.
Assay [2] concerns the target T1, human D2R/β-arrestin. The assay can be described thus: cell-based. As to conditions: cAMP Antagonist, CHO-K1 cells expressing human D2R/β-arrestin; antagonist mode, 2.5 μM forskolin and 2.7 nM quinpirole.
In assay [3] the target is T1, human D2R/β-arrestin. The assay can be described thus: β-arrestin agonist assay (PathHunter). It counts as cell-based. To be noted: CHO-K1 cells expressing human D2R/β-arrestin; agonist mode. The method, then:
The detection reagent (9.6 μL, Buffer:Emerald II:Galactor-Star in a 19:5:1 ratio, i.e., 14.06 mL:3.7 mL:0.74 mL=18.5 mL) was then added to the agonist plates.

In assay [4] the target is T1, human D2R/β-arrestin. The assay can be described thus: Gi/cAMP agonist assay (Lance Ultra cAMP, forskolin). It is filed as cell-based. To be noted: CHO-K1 cells expressing human D2R/β-arrestin; agonist mode, 2.5 μM forskolin. As for the experimental part: Eu-cAMP tracer solution (10 μl, PerkinElmer, 360 μl of Tracer in 17.64 ml kit buffer) and ULight-anti-cAMP solution (10 μl, 120 μL antibody in 17.88 ml kit buffer) was then added to each well.

A value given as a limit tells only on which side of the number the result lay.

T1 sequence (P14416 whole entry): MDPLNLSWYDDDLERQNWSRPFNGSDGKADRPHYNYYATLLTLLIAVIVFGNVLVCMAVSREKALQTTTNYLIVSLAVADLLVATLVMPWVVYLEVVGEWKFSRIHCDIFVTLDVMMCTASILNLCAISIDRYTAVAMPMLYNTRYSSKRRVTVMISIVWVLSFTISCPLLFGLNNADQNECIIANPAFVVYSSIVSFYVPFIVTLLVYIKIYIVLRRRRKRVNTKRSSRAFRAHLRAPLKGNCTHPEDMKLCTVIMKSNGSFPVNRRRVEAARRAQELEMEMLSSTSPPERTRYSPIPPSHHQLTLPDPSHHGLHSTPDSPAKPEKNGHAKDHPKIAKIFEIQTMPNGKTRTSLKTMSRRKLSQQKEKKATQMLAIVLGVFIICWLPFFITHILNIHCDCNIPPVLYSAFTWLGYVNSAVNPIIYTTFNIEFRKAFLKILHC

Turning to `COc1cc2c(cc1O)C1Cc3ccc(O)c(OC)c3CN1CC2` (racemic) [D,L-Stepholidine, reference compound], the IC50 against human D2R/β-arrestin [1] and on human D2R/β-arrestin [2] was under 0.1 µM in each case. For the same compound, the concentration for a half-maximal effect (EC50) at human D2R/β-arrestin [3] and at human D2R/β-arrestin [4] was over 30 µM in each case.
In the case of `CNC(=O)C1(C)CCN(CC2COc3ccccc3O2)CC1` (single isomer, unassigned) [Compound 202a, 1-((2,3-dihydrobenzo[b][1,4]dioxin-2-yl)methyl)-N,4-dimethylpiperidine-4-carboxamide], the half-maximal inhibitory concentration (IC50) (commonly the point on the concentration scale where inhibition reaches its midpoint) lay within 10 to 30 µM against human D2R/β-arrestin [1] and 1 to 10 µM at human D2R/β-arrestin [2]. Moreover, the values for the EC50 on human D2R/β-arrestin [3] and at human D2R/β-arrestin [4] were over 30 µM and 0.1 to 1 µM, respectively.
Regarding `CC1(C(=O)NC2CC2)CCN(CC2COc3ccccc3O2)CC1` (single isomer, unassigned) [Compound 203a, N-cyclopropyl-1-((2,3-dihydrobenzo[b][1,4]dioxin-2-yl)methyl)-4-methylpiperidine-4-carboxamide], the IC50 fell in the range of 0.1 to 1 µM at human D2R/β-arrestin [1] and 1 to 10 µM on human D2R/β-arrestin [2]. The EC50 (as a rule, the midpoint of the concentration-response curve) at human D2R/β-arrestin [3] was over 30 µM; at human D2R/β-arrestin [4], under 0.1 µM.
For `CC1(C(=O)NC2CC2)CCN(CC2COc3ccccc3O2)CC1` (single isomer, unassigned) [Compound 203b, N-cyclopropyl-1-((2,3-dihydrobenzo[b][1,4]dioxin-2-yl)methyl)-4-methylpiperidine-4-carboxamide], in that order: 10 to 30 µM, 10 to 30 µM, over 30 µM and over 30 µM.
The corresponding values for `CC1(C(=O)Nc2ccccc2)CCN(CC2COc3ccccc3O2)CC1` (single isomer, unassigned) [Compound 204a, 1-((2,3-dihydrobenzo[b][1,4]dioxin-2-yl)methyl)-4-methyl-N-phenylpiperidine-4-carboxamide] are 1 to 10 µM, 1 to 10 µM, over 30 µM and over 30 µM.
The corresponding values for `FC(F)(F)c1ccccc1OCCN1CCC2(CC1)CC2c1ccc(Cl)cc1` (single isomer, unassigned) [Compound 216a, 1-(4-chlorophenyl)-6-(2-(2-(trifluoromethyl)phenoxy)ethyl)-6-azaspiro[2.5]octane] are 1 to 10 µM, 1 to 10 µM, over 30 µM and over 30 µM.
In the case of `FC(F)(F)c1ccccc1OCCN1CCC2(CC1)CC2c1ccc(Cl)cc1` (single isomer, unassigned) [Compound 216b, 1-(4-chlorophenyl)-6-(2-(2-(trifluoromethyl)phenoxy)ethyl)-6-azaspiro[2.5]octane], the IC50 was 10 to 30 µM against human D2R/β-arrestin [1] and over 30 µM at human D2R/β-arrestin [2]. Moreover, the EC50 was over 30 µM on human D2R/β-arrestin [3] and 10 to 30 µM at human D2R/β-arrestin [4].
Regarding `COc1ccccc1OCCN1CCC(C)(Oc2ccc(Cl)cc2)C1` (centres unmarked) [Compound 2, 3-(4-Chlorophenoxy)-1-(2-(2-methoxyphenoxy)ethyl)-3-methyl pyrrolidine], the concentration for half-maximal inhibition (IC50) against human D2R/β-arrestin [1] and against human D2R/β-arrestin [2] was 0.1 to 1 µM each time. Further, the EC50 on human D2R/β-arrestin [3] and at human D2R/β-arrestin [4] was over 30 µM each time.
For the compound `CC1(Oc2ccc(Cl)cc2)CCN(CCCCOc2ccccc2)C1` (centres unmarked) [Compound 3, 3-(4-chlorophenoxy)-3-methyl-1-(4-phenoxybutyl)pyrrolidine], the figures for the IC50 against human D2R/β-arrestin [1] and against human D2R/β-arrestin [2] were 1 to 10 µM and 0.1 to 1 µM, respectively. Also, the 50% effective concentration (EC50) at human D2R/β-arrestin [3] and at human D2R/β-arrestin [4] was over 30 µM each time.
For the compound `CC1(Oc2ccc(Cl)cc2)CCN(CCCOc2ccccc2)C1` (centres unmarked) [Compound 4, 3-(4-chlorophenoxy)-3-methyl-1-(3-phenoxypropyl)pyrrolidine], the half-maximal inhibitory concentration (IC50) against human D2R/β-arrestin [1] fell in the range of 1 to 10 µM; on human D2R/β-arrestin [2] it was 0.1 to 1 µM. The EC50 on human D2R/β-arrestin [3] and at human D2R/β-arrestin [4] was over 30 µM each time.
Consider `CC1(Oc2ccc(Cl)cc2)CCN(CCOc2ccccc2Cl)C1` (centres unmarked) [Compound 5, 3-(4-chlorophenoxy)-1-(2-(2-chlorophenoxy)ethyl)-3-methylpyrrolidine], for which the IC50 at human D2R/β-arrestin [1] is 0.1 to 1 µM; at human D2R/β-arrestin [2], under 0.1 µM. In addition, the EC50 at human D2R/β-arrestin [3] and on human D2R/β-arrestin [4] was over 30 µM each time.
With `Cc1ccccc1OCCN1CCC(C)(Oc2ccc(Cl)cc2)C1` (centres unmarked) [Compound 6, 3-(4-chlorophenoxy)-3-methyl-1-(2-(o-tolyloxy)ethyl)pyrrolidine], the IC50 against human D2R/β-arrestin [1] was 1 to 10 µM; against human D2R/β-arrestin [2], 0.1 to 1 µM. The EC50 on human D2R/β-arrestin [3] and on human D2R/β-arrestin [4] was over 30 µM each time.
`CC1(Oc2ccc(Cl)cc2)CCN(CCOc2ccccc2C(F)(F)F)C1` (centres unmarked) [Compound 8, 3-(4-chlorophenoxy)-3-methyl-1-(2-(2-(trifluoromethyl)phenoxy)ethyl) pyrrolidine]: the figures for the half-maximal inhibitory concentration (IC50) against human D2R/β-arrestin [1] and against human D2R/β-arrestin [2] were 1 to 10 µM and 0.1 to 1 µM, respectively. For the same compound, the EC50 at human D2R/β-arrestin [3] and at human D2R/β-arrestin [4] was over 30 µM throughout.
For `CC1(Oc2ccc(Cl)cc2)CCN(CCOc2ccccc2F)C1` (centres unmarked) [Compound 9, 3-(4-chlorophenoxy)-1-(2-(2-fluorophenoxy)ethyl)-3-methylpyrrolidine], the figures for the IC50 on human D2R/β-arrestin [1] and against human D2R/β-arrestin [2] were 0.1 to 1 µM and over 30 µM, respectively. The EC50 at human D2R/β-arrestin [3] is over 30 µM; at human D2R/β-arrestin [4] it was under 0.1 µM.
Regarding `CC1(Oc2ccc(Cl)cc2)CCN(CCOc2cccc(Cl)c2)C1` (centres unmarked) [Compound 10, 3-(4-chlorophenoxy)-1-(2-(3-chlorophenoxy)ethyl)-3-methylpyrrolidine], the IC50 on human D2R/β-arrestin [1] is 1 to 10 µM; at human D2R/β-arrestin [2], over 30 µM. Further, the EC50 is over 30 µM at human D2R/β-arrestin [3] and under 0.1 µM at human D2R/β-arrestin [4].
As to `Cc1cccc(OCCN2CCC(C)(Oc3ccc(Cl)cc3)C2)c1` (centres unmarked) [Compound 11, 3-(4-chlorophenoxy)-3-methyl-1-(2-(m-tolyloxy)ethyl)pyrrolidine], the values for the IC50 against human D2R/β-arrestin [1] and against human D2R/β-arrestin [2] were 1 to 10 µM and 0.1 to 1 µM, respectively. In addition, the values for the EC50 at human D2R/β-arrestin [3] and on human D2R/β-arrestin [4] were over 30 µM and under 0.1 µM, respectively.
For `CC1(Oc2ccc(Cl)cc2)CCN(CCOc2cccnc2)C1` (centres unmarked) [Compound 12, 3-(2-(3-(4-chlorophenoxy)-3-methylpyrrolidin-1-yl)ethoxy)pyridine], the IC50 against human D2R/β-arrestin [1] and at human D2R/β-arrestin [2] was over 30 µM each time. The EC50 on human D2R/β-arrestin [3] and on human D2R/β-arrestin [4] was under 0.1 µM in each case.
For `CC1(Oc2ccc(Cl)cc2)CCN(CCOc2cccc(C(F)(F)F)c2)C1` (centres unmarked) [Compound 13, 3-(4-chlorophenoxy)-3-methyl-1-(2-(3-(trifluoromethyl)phenoxy)ethyl) pyrrolidine], the IC50 against human D2R/β-arrestin [1] lay in the range of 1 to 10 µM; at human D2R/β-arrestin [2] it was 0.1 to 1 µM. Also, the EC50 on human D2R/β-arrestin [3] and on human D2R/β-arrestin [4] was over 30 µM in each case.
On to `CC1(Oc2ccc(Cl)cc2)CCN(CCOc2ccc(F)cc2)C1` (centres unmarked) [Compound 14, 3-(4-chlorophenoxy)-1-(2-(4-fluorophenoxy)ethyl)-3-methylpyrrolidine], for which the IC50 against human D2R/β-arrestin [1] is 1 to 10 µM; against human D2R/β-arrestin [2], 0.1 to 1 µM. The figures for the EC50 on human D2R/β-arrestin [3] and at human D2R/β-arrestin [4] were over 30 µM and under 0.1 µM, respectively.
The corresponding values for `CC1(Oc2ccc(Cl)cc2)CCN(CCOc2ccc(Cl)cc2)C1` (centres unmarked) [Compound 15, 3-(4-chlorophenoxy)-1-(2-(4-chlorophenoxy)ethyl)-3-methylpyrrolidine] are 1 to 10 µM, 1 to 10 µM, over 30 µM and under 0.1 µM.
As for `Cc1ccc(OCCN2CCC(C)(Oc3ccc(Cl)cc3)C2)cc1` (centres unmarked) [Compound 16, 3-(4-Chlorophenoxy)-3-methyl-1-(2-(p-tolyloxy)ethyl)pyrrolidine], the IC50 was 1 to 10 µM at human D2R/β-arrestin [1] and over 30 µM against human D2R/β-arrestin [2]. Besides, the values for the EC50 on human D2R/β-arrestin [3] and on human D2R/β-arrestin [4] were over 30 µM and 0.1 to 1 µM, respectively.
In the case of `CC1(Oc2ccc(Cl)cc2)CCN(CCOc2ccc(C(F)(F)F)cc2)C1` (centres unmarked) [Compound 17, 3-(4-chlorophenoxy)-3-methyl-1-(2-(4-(trifluoromethyl)phenoxy)ethyl) pyrrolidine], the IC50 fell in the range of 10 to 30 µM against human D2R/β-arrestin [1] and 1 to 10 µM on human D2R/β-arrestin [2]. Moreover, the EC50 on human D2R/β-arrestin [3] and at human D2R/β-arrestin [4] was over 30 µM throughout.
For the compound `CC1(Oc2ccc(Cl)cc2)CCN(CCOc2ccc3ncsc3c2)C1` (centres unmarked) [Compound 18, 6-(2-(3-(4-chlorophenoxy)-3-methylpyrrolidin-1-yl)ethoxy)benzo[d]thiazole], the half-maximal inhibitory concentration (IC50) at human D2R/β-arrestin [1] is 1 to 10 µM; on human D2R/β-arrestin [2], over 30 µM. Besides, the EC50 was over 30 µM on human D2R/β-arrestin [3] and 0.1 to 1 µM at human D2R/β-arrestin [4].
On to `COc1cccc(OCCN2CCC(C)(Oc3ccc(Cl)cc3)C2)c1` (centres unmarked) [Compound 19, 3-(4-chlorophenoxy)-1-(2-(3-methoxyphenoxy)ethyl)-3-methyl pyrrolidine], for which the IC50 on human D2R/β-arrestin [1] and against human D2R/β-arrestin [2] was over 30 µM in each case. Further, the 50% effective concentration (EC50) on human D2R/β-arrestin [3] is 1 to 10 µM; on human D2R/β-arrestin [4], under 0.1 µM.
For `COc1ccc(OCCN2CCC(C)(Oc3ccc(Cl)cc3)C2)cc1` (centres unmarked) [Compound 20, 3-(4-chlorophenoxy)-1-(2-(4-methoxyphenoxy)ethyl)-3-methyl pyrrolidine], the IC50 is 10 to 30 µM on human D2R/β-arrestin [1] and over 30 µM at human D2R/β-arrestin [2]. In addition, the concentration giving a half-maximal response (EC50) on human D2R/β-arrestin [3] is over 30 µM; at human D2R/β-arrestin [4], under 0.1 µM.
With `CC1(Oc2ccc(Cl)cc2)CCN(CCOC2CCCCC2)C1` (centres unmarked) [Compound 21, 3-(4-chlorophenoxy)-1-(2-(cyclohexyloxy)ethyl)-3-methylpyrrolidine], the IC50 against human D2R/β-arrestin [1] and against human D2R/β-arrestin [2] was 1 to 10 µM each time. The EC50 at human D2R/β-arrestin [3] and on human D2R/β-arrestin [4] was over 30 µM throughout.

The values above are taken from US11498896B2 (The Broad Institute, Inc., priority 2014, dated 2022).
